Experimental data published in US20030087956A1, “Urea compounds as inhibitors for vla-4” (priority 2000, published 2003).

Target: T1, integrin α4β1 (Homo sapiens, UniProt P05556+P13612)
T1 construct: expressed on the MOLT-4 cell membrane; host or cells: MOLT-4 human T-lymphoblastic leukaemia cells
Assay: MOLT-4 cell/Fibronectin adhesion assay
Assay type: cell-based
Settings: MOLT-4 cells on fibronectin-coated plates, 2 h at 37° C., acid phosphatase readout; read-out: inhibitor of MOLT-4 cell adhesion to fibronectin (concentration at which compound is an inhibitor)
Source text: MOLT-4 cells—human T-lymphoblastic leukaemia cells (European Collection of Animal Cell Cultures, Porton Down)
Fibronectin—purified from human plasma by gelatin-sepharose affinity chromatography according to the methods described in E. Nengvall, E. Ruoslahti, Int. J. Cancer, 1977, 20, pages 1-5 and J. Forsyth et al, Methods in Enzymology, 1992, 215, pages 311-316).
1.1.1 MOLT-4 cell/Fibronectin adhesion assay.
The MOLT-4 cell/fibronectin adhesion assay was used to investigate the interaction of the integrin α4-β1expressed on the MOLT-4 cell membrane with fibronectin. Polystyrene 96 well plates were coated overnight at 4° C. with fibronectin, 100 μl of 10 μg/ml in PBS. Non-specific adhesion sites were blocked by adding 100 μl BSA, 20 mg/ml. After incubating for 1 h at room temperature, the solutions were aspirated. […] Adherent cells were quantified by a colorimetric acid phosphatase assay. […] After incubation for 1 h at 37° C., 50 μl sodium hydroxide (1M) was added to each well and the absorbance 405 nm was measured on a microplate spectrophotometer. Compounds which inhibited adhesion gave a lower absorbance reading. […] Percentage inhibition was calculated with respect to total (no inhibitor) and non-specific (no fibronectin) standards on each plate.

T1 sequence (P13612 34-1032): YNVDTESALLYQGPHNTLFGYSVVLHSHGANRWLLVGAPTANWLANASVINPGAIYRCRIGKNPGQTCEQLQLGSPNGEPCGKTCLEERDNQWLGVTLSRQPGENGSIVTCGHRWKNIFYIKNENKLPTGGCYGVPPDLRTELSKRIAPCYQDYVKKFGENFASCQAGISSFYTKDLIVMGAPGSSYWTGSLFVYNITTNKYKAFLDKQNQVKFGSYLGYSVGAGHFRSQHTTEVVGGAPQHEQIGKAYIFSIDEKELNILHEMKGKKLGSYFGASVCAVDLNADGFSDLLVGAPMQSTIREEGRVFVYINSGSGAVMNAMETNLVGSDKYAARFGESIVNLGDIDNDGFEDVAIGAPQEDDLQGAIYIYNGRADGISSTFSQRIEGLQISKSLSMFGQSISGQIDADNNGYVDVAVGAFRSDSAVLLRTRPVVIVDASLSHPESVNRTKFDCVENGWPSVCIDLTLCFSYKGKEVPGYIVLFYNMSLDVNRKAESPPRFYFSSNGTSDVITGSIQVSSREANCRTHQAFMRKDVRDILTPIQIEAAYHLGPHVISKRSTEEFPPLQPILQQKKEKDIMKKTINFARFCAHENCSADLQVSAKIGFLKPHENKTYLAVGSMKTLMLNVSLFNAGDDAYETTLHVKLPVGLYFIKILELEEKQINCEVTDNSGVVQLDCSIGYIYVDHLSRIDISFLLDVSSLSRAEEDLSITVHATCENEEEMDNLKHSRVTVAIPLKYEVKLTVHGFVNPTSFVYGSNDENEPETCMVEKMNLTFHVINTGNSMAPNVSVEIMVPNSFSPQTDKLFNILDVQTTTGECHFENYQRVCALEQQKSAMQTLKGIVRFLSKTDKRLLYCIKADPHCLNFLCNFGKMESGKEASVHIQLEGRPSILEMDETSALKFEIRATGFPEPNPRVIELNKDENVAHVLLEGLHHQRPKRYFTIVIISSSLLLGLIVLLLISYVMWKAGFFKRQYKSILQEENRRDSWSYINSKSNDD
T1 sequence (P05556 21-798): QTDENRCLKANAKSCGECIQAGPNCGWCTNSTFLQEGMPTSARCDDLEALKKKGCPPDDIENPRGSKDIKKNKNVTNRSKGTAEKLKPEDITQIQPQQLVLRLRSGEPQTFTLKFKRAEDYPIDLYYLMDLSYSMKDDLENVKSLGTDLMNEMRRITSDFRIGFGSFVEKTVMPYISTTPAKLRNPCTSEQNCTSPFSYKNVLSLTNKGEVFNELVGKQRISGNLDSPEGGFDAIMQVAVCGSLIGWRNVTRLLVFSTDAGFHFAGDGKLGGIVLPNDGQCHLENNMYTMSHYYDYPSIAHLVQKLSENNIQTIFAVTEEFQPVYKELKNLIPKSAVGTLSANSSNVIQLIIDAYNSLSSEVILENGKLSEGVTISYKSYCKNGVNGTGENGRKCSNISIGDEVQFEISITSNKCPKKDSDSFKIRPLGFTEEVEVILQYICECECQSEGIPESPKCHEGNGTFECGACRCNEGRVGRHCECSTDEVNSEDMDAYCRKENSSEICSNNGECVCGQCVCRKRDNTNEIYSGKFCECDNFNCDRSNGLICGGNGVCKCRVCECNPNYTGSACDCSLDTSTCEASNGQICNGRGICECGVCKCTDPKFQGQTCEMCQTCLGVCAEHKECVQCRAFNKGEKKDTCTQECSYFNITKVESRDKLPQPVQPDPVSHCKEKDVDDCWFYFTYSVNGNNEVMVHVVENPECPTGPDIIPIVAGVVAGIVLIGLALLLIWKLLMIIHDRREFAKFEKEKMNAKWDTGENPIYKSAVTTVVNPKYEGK

| IC50 [nM] | Structure (SMILES) |
| --- | --- |
| 87 | Cc1ccccc1NC(=O)Nc1ccc(CC(=O)Nc2ccc(OCCN3CCCCC3)c(OCCCC(=O)O)c2)cc1 [Compound 1] |
| 84 | Cc1ccccc1NC(=O)Nc1ccc(CC(=O)Nc2ccc(OCCCN3CCCC3)c(OCCCC(=O)O)c2)cc1 [Compound 2] |
